Measurements from EP0571928A1, “Acyclic Tocotrienol analogs in the treatment of hypercholesterolemia and hyperlipidemia” (Bristol-Myers Squibb Company, priority 1992, dated 1993).

How the values were obtained:
[1] = system: cholesterol biosynthesis in HepG2 cells; assay: HepG2 cell culture model - 14C-acetate incorporation assay (cholesterol synthesis); format: cell-based; details: 3-4 hours incubation, 2-14C-acetate incorporation into digitonin-precipitable sterols, vs. vehicle controls; for inhibition at 10 µM: Homo sapiens, read-out: Sterol Biosynthesis % Inhibition 10µM
Experimental: HepG2 Cell Culture Model - 14C-Acetate Incorporation Assay
After 16 hours in LDS containing media, test compounds were added in dimethylsulfoxide vehicle (0.5% v/v final conc.) for an incubation period of 3-4 hours. Cholesterol synthesis was then directly determined by 2-14C-acetate (1.8 mCi/mmol, 0.5 µCi/ml) incorporation for 30 to 60 minutes (previously shown to be time-linear) into total digitonin-precipitable sterols. […] Percent inhibition was calculated from the average of duplicates vs. triplicate vehicle controls conducted simultaneously.

HMG-CoA reductase = assay: HepG2 cell culture model - HMG-CoA reductase suppression assay; format: cell-based; details: HepG2 cells, 4 hours of incubation at 37°, decrease in specific activity vs. vehicle controls
Experimental: HepG2 Cell Culture Model - HMG-CoA Reductase Suppression Assay
HMG-CoA reductase suppression in HepG2 cells was conducted by growing cells in RPMT-1640 plus 10% FBS on 100 mm plates, and when cells reached approximately 75% confluency, inducing with LDS (as described above) for 16 hours prior to assays. Compounds were added using dimethylsulfoxide vehicle (0.5% v/v, final) and after 4 hours of incubation at 37°, cells were harvested by scraping. Cell pellets were rinsed and lysed by sonication in 1.7 ml cold 50 mM imidazole-HCl, pH 7.2, 50 mM NaCl, 10 mM EDTA, 10 mM EGTA, 5mM DTT, and 40 µM leupeptin). Lysates were centrifuged at 150 x g and the supernatant was centrifuged at 100,000 x g in a Beckman airfuge to isolate the post-nuclear total membrane fraction. The membranes were resuspended in 50 mM imidazole-HCl, pH 7.2, 250 mM NaCl, 5 mM DTT, and 20 µM leupeptin and used for the assay of HMG-CoA reductase activity by the radiochemical procedure as described previously by Parker et al., J. Biol. Chem., 264: 4877-4887, (1989). Values were normalized for protein content by the Lowry method as cited previously (ibid). HMG-CoA reductase percent suppression was calculated as the decrease in specific activity of HMG-CoA reductase for treated cells vs. controls receiving vehicle. Averages of duplicate cell determinations assayed in duplicate were taken.

[2] = system: Normocholesterolemic Chickens; assay: In vivo evaluation in normocholesterolemic chickens - serum cholesterol pools; details: 6-week old male chickens, 50 ppm in diet for four weeks
Experimental: In Vivo Biological Evaluation in Normocholesterolemic Chickens
Newborn male chicks (10 for each group) were raised on a standard corn-soybean based control diet for two weeks and then switched to either control or experimental diets for four weeks. Drug treatment consisted of the addition of test compounds to the corn-soybean-based diet at a concentration of 50 ppm. At the end of the feeding period, all the birds were fasted (36 hours) and refed (48 hours) to induce cholesterolgenic enzymes prior to sacrifice. The specific activity of HMGR, total serum cholesterol levels, LDL cholesterol and HDL cholesterol pools were determined (Table 6).

Molecule | inhibition at 10 µM [1] [%] | also measured
1-(4-Hydroxyphenyl)-6,10,14-Trimethyl-5(E), 9(E), 13-Pentadecatrien-1- One [Example 35] | – | Sterol Biosynthesis % Inhibition 10µM [1]: 78%
2-Hydroxy-4,6-Dimethyl-5-[(5,9,13-Trimethyl-4(E), 8(E), 12-Tetradecatrienyl)oxy]-1,3-Benzenedimethanol [Example 17] | – | Sterol Biosynthesis % Inhibition 10µM [1]: 72%
3,5-Dimethoxy-4-[(5,9,13-Trimethyl-4(E), 8(E), 12-tetradecatrienyl)oxy]phenol [Example 16] | – | Sterol Biosynthesis % Inhibition 10µM [1]: 66%
4-[2-(5,9,13)-Trimethyl-4(E), 8(E), 12-tetradecatrienyl)-1,3-dithian-2-yl]phenol [Example 34] | – | Sterol Biosynthesis % Inhibition 10µM [1]: 43%
4-[(5,9,13-Trimethyl-4(E), 8(E),12-tetradecatrienyl)oxy]benzenemethanol [Example 21] | – | HMG-CoA Reductase Suppression % 10µM (HMG-CoA reductase): 9%; Sterol Biosynthesis % Inhibition 10µM [1]: 64%
CC(C)=CCC/C(C)=C/CC/C(C)=C/CCCOc1ccccc1 [Example 5, (5,9,13-Trimethyl-4(E), 8(E),12-tetradecatrienyl)oxy benzene] | 12 | –
CC(C)=CCC/C(C)=C/CC/C(C)=C/CCCOc1ccccc1O [Example 6, 2-[(5,9,13-Trimethyl-4(E), 8(E),12-tetradecatrienyl)oxy]phenol] | 10 | –
CC(C)=CCC/C(C)=C/CC/C(C)=C/CCCOc1cccc(O)c1 [Example 7, 3-[(5,9,13-Trimethyl-4(E), 8(E),12-tetradecatrienyl)oxy]phenol] | 38 | –
CC(C)=CCC/C(C)=C/CC/C(C)=C/CCCOc1ccc(O)cc1 [Example 8, 4-[(5,9,13-Trimethyl-4(E), 8(E),12-tetradecatrienyl)oxy]phenol] | 71 | HMG-CoA Reductase Suppression % 10µM (HMG-CoA reductase): 29%
CC(C)=CCC/C(C)=C/CC/C(C)=C/COc1ccc(O)c(C)c1C [Example 9, 2,3-Dimethyl-4-[(3,7,11-Trimethyl-2(E), 6(E), 10-dodecatrienyl)oxy]phenol] | 36 | –
CC(C)=CCC/C(C)=C/CC/C(C)=C/CCOc1ccc(O)c(C)c1C [Example 10, 2,3-Dimethyl-4-[(4,8,12-Trimethyl-3(E),7(E), 11-tridecatrienyl)oxy]phenol] | 58 | HMG-CoA Reductase Suppression % 10µM (HMG-CoA reductase): 38%
CC(C)=CCC/C(C)=C/CC/C(C)=C/CCCOc1ccc(O)c(C)c1C [Example 11, 2,3-Dimethyl-4-[(5,9,13-Trimethyl-4(E), 8(E), 12-tetradecatrienyl)oxy]phenol] | 64 | HMG-CoA Reductase Suppression % 10µM (HMG-CoA reductase): 53%
CC(C)=CCC/C(C)=C/CC/C(C)=C/CCCOc1c(C)cc(O)cc1C [Example 12, 3,5-Dimethyl-4-[(5,9,13-Trimethyl-4(E), 8(E), 12-tetradecatrienyl)oxy] phenol] | 70 | HDL Cholesterol [2]: 70 % of Control; LDL Cholesterol [2]: 50 % of Control; Total Cholesterol ([2]; serum): 67 % of Control; HMG-CoA Reductase Suppression % 10µM (HMG-CoA reductase): 35%
CC(C)=CCCC(C)=CCCC(C)=CCCCOc1c(C)cc(O)cc1C [Example 13, 3,5-Dimethyl-4-[(5,9,13-Trimethyl-4,8, 12-tetradecatrienyl)oxy]phenol] | 70 | HMG-CoA Reductase Suppression % 10µM (HMG-CoA reductase): 45%
CC(C)=CCC/C(C)=C/CC/C(C)=C/CCCOc1c(C)cc(OC(N)=O)cc1C [Example 14, 3,5-Dimethyl-4-[(5,9,13-Trimethyl-4(E), 8(E), 12-tetradecatrienyl)oxy]phenyl carbamate] | 65 | HMG-CoA Reductase Suppression % 10µM (HMG-CoA reductase): 21%
CC(C)=CCC/C(C)=C/CC/C(C)=C/CCCOc1c(C)cc(O)c(C)c1C [Example 15, 2,3,5-Trimethyl-4-[(5,9,13-Trimethyl-4(E),8(E), 12-tetradecatrienyl)oxy] phenol] | 48 | –
CC(C)=CCC/C(C)=C/CC/C(C)=C/CCCOc1ccc(O)c(CCO)c1 [Example 18, 2-Hydroxy-5-[(5,9,13-Trimethyl-4(E), 8(E), 12-tetradecatrienyl)oxy]benzene ethanol] | 64 | –

Molecule | inhibition at 10 µM [1] [%] | also measured
CC(C)=CCC/C(C)=C/CC/C(C)=C/CCCOc1c(F)c(F)c(O)c(F)c1F [Example 19, 2,3,5,6-Tetrafluoro-4-[(5,9,13-Trimethyl-4(E), 8(E)-,12-tetradecatrienyl)oxy]phenol] | 55 | –
CC(=O)c1cc(O)ccc1OCCC/C=C(\C)CC/C=C(\C)CCC=C(C)C [Example 20, 1-[5-Hydroxy-2-(5,9,13-Trimethyl-4(E), 8(E),12-tetradecatrienyloxy)phenyl]ethanone] | 69 | –
CC(C)=CCC/C(C)=C/CC/C(C)=C/CCCOc1cccc(CO)c1 [Example 22, 3-[(5,9,13-Trimethyl-4(E), 8(E),12-Tetradecatrienyl)oxy]benzenemethanol] | 73 | –
CC(C)=CCC/C(C)=C/CC/C(C)=C/CCCOc1ccc(C(N)=O)cc1 [Example 23, 4-[(5,9,13-Trimethyl-4(E),8(E),12-tetradecatrienyl)oxy]benzamide] | 42 | –
CC(C)=CCC/C(C)=C/CC/C(C)=C/CCCOc1ccc(N)cc1 [Example 24, 4-[(5,9,13-Trimethyl-4(E), 8(E),12-tetradecatrienyl)oxy]aniline] | 65 | –
CC(C)=CCC/C(C)=C/CC/C(C)=C/CCCOc1c(C)cc(N)cc1C [Example 26, 3,5-Dimethyl-4-[(5,9,13-Trimethyl-4(E), 8(E),12-tetradecatrienyl)oxy] aniline] | 51 | –
COC(=O)Nc1cc(C)c(OCCC/C=C(\C)CC/C=C(\C)CCC=C(C)C)c(C)c1 [Example 27, N-[[3,5-Dimethyl-4-[(5,9,13-Trimethyl-4(E), 8(E), 12-tetradecatrienyl)oxy]]phenyl]methyl carbamate] | 47 | –
CC(C)=CCC/C(C)=C/CC/C(C)=C/CCCOc1ccc(S(N)(=O)=O)cc1 [Example 28, 4-[(5,9,13-Trimethyl-4(E), 8(E),12-Tetradecatrienyl)oxy] benzenesulfonamide] | 58 | –
CC(C)=CCC/C(C)=C/CC/C(C)=C/CCCOc1ccc(B2OB(c3ccc(OCCC/C=C(\C)CC/C=C(\C)CCC=C(C)C)cc3)OB(c3ccc(OCCC/C=C(\C)CC/C=C(\C)CCC=C(C)C)cc3)O2)cc1 [Example 29, 2,4,6-Tris-[4-[(5,9,13-Trimethyl-4(E), 8(E),12-tetradecatrienyl)oxy]phenyl]boroxin] | 99 | –
CC(C)=CCC/C(C)=C/CC/C(C)=C/CCCSc1ccc(O)cc1 [Example 30, 4-[(5,9,13-Trimethyl-4(E), 8(E),12-tetradecatrienyl)thio]phenol] | 68 | HMG-CoA Reductase Suppression % 10µM (HMG-CoA reductase): 29%
CC(C)=CCC/C(C)=C/CC/C(C)=C/CCC[S+]([O-])c1ccc(O)cc1 (centres unmarked) [Example 31, 4-[(5,9,13-trimethyl-4(E),8(E),12-tetradecatrienyl)sulfinyl]phenol] | 47 | –
CC(C)=CCC/C(C)=C/CC/C(C)=C/CCCS(=O)(=O)c1ccc(O)cc1 [Example 32, 4-[(5,9,13-trimethyl-4(E),8(E),12-tetradecatrienyl)sulfonyl]phenol] | 38 | –
CC(C)=CCC/C(C)=C/CC/C(C)=C/CCCCc1ccc(O)cc1 [Example 33, 4-[6,10,14-Trimethyl-5(E), 9(E), 13-Pentadecatrienyl]phenol] | 50 | –
CC(C)=CCC/C(C)=C/CC/C(C)=C/CCCNc1ccc(O)cc1 [Example 36, 4-[(5,9,13-Trimethyl-4(E), 8(E),12-tetradecatrienyl)amino]phenol] | 43 | –
CC(C)=CCC/C(C)=C/CC/C(C)=C/CCCN(C(=O)OC(C)(C)C)c1ccc(O)cc1 [Example 37, 1,1-Dimethylethyl-(4-Hydroxyphenyl)-(5,9,13-Trimethyl-4(E), 8(E), 12-tetradecatrienyl) carbamate] | 79 | –
CC(C)=CCC/C(C)=C/CC/C(C)=C/CCC(C)(C)Oc1ccc(O)cc1 [Example 39, 4-[(1,1,5,9,13-Pentamethyl-4(E), 8(E), 12-tetradecatrienyl)oxy]phenol hydrate] | 37 | –
